Assay results from EPA's ToxRefDB 2.

Legend:
rabbit [1] = conditions: Sub-acute repeat dose toxicity, new zealand white, Oral, Gavage/Intubation, dose end: 5 day, group: systemic
dog [2] = conditions: Subchronic oral toxicity in nonrodent, beagle, Gavage/Intubation, dose end: 90 day, group: systemic, systemic / in life observation / clinical signs / emesis + systemic / in life observation / clinical signs / erythema + systemic / in life …
dog [3] = conditions: Sub-acute repeat dose toxicity, beagle, Oral, Gavage/Intubation, dose end: 5 day, group: systemic
rat [4] = conditions: Fertility (Segment I), sprague dawley, Oral, Gavage/Intubation, dose end: 1 generation
rabbit [5] = conditions: Prenatal developmental toxicity study, new zealand white, Oral, Gavage/Intubation, dose end: 19 GD, group: maternal
rat [6] = conditions: Sub-acute repeat dose toxicity, sprague dawley, Oral, Gavage/Intubation, dose end: 21 day, group: systemic
rat [7] = conditions: Subchronic oral toxicity in rodents, sprague dawley, Gavage/Intubation, dose end: 90 day, group: systemic
rat [8] = conditions: Fertility (Segment I), sprague dawley, Oral, Gavage/Intubation, dose end: 1 generation, group: parental
dog [9] = conditions: Sub-acute repeat dose toxicity, beagle, Oral, Gavage/Intubation, dose end: 15 day, group: systemic
rat [10] = conditions: Prenatal developmental toxicity study; sprague dawley; Oral; Gavage/Intubation; dose end: 18 GD; group: maternal; systemic / in life observation / body weight / body weight + systemic / in life observation / body weight / body weight gain + systemic / in…
rat [11] = conditions: Subchronic oral toxicity in rodents, fischer, Feed, dose end: 13 week, group: systemic
rat [12] = conditions: Prenatal developmental toxicity study, wistar, Oral, Water, dose end: 19 GD
rat [13] = conditions: Multigenerational reproductive toxicity study, wistar, Oral, Water, dose end: 1 generation
mouse = conditions: Subchronic oral toxicity in rodents, b6c3f1, Feed, dose end: 13 week, group: systemic, systemic / organ weight / liver / absolute + systemic / organ weight / liver / relative to body weight + systemic / pathology microscopic / …
rat [14] = conditions: Prenatal developmental toxicity study, fischer, Oral, Gavage/Intubation, dose end: 15 GD
rabbit [15] = conditions: Prenatal developmental toxicity study, new zealand white, Oral, Gavage/Intubation, dose end: 18 GD, group: maternal
rabbit [16] = conditions: Prenatal developmental toxicity study, Oral, Gavage/Intubation, dose end: 19 GD
rat [17] = conditions: Sub-acute repeat dose toxicity, sprague dawley, Oral, Gavage/Intubation, dose end: 36 day, group: systemic
[18] = systemic / in life observation / body weight / body weight gain + systemic / in life observation / clinical signs / [other] + systemic / in …
[19] = systemic / in life observation / clinical signs / abnormal feces + systemic / in life observation / clinical signs / altered breathing rate
[20] = systemic / in life observation / body weight / body weight + systemic / in life observation / clinical signs / emesis + systemic / in life …
[21] = systemic / in life observation / clinical signs / salivation + systemic / in life observation / clinical signs / emesis
[22] = group: maternal, reproductive / reproductive performance / estrous cycle / length
[23] = group: parental, systemic / in life observation / body weight / body weight + systemic / in life observation / clinical signs / [other] + systemic / in life …
[24] = group: parental, systemic / in life observation / clinical signs / altered breathing rate + systemic / in life observation / clinical signs / compulsive …
[25] = systemic / in life observation / clinical signs / dialated pupils + systemic / in life observation / food consumption / food consumption
[26] = systemic / clinical chemistry / alanine aminotransferase (alt/sgpt) / alanine aminotransferase (alt/sgpt) + systemic / clinical chemistry / …
[27] = systemic / organ weight / liver / relative to body weight
[28] = systemic / clinical chemistry / [other] / [other] + systemic / clinical chemistry / aspartate aminotransferase (ast/sgot) / aspartate …
[29] = systemic / organ weight / liver / absolute + systemic / in life observation / clinical signs / salivation
[30] = systemic / in life observation / body weight / body weight + systemic / in life observation / clinical signs / altered breathing rate + …
[31] = systemic / clinical chemistry / alanine aminotransferase (alt/sgpt) / alanine aminotransferase (alt/sgpt) + systemic / hematology / platelet…
[32] = systemic / in life observation / body weight / body weight + systemic / clinical chemistry / alanine aminotransferase (alt/sgpt) / alanine …
[33] = systemic / clinical chemistry / cholesterol / cholesterol
[34] = group: developmental, developmental / developmental malformation / bone / incomplete ossification + developmental / developmental malformation / bone / wavy
[35] = group: maternal, reproductive / reproductive performance / pregnancy / pregnancy + systemic / in life observation / body weight / body weight + systemic / in…
[36] = group: offspring, developmental / developmental landmark / eye opening / eye opening + developmental / developmental landmark / incisor eruption / incisor …
[37] = group: offspring, developmental / developmental malformation / bone / kinked
[38] = group: parental, systemic / in life observation / body weight / body weight + systemic / in life observation / body weight / body weight gain + systemic / in…
[39] = group: reproductive, reproductive / reproductive performance / implantations / implantations + reproductive / reproductive performance / resorptions / …
[40] = group: developmental, developmental / developmental malformation / bone / delayed ossification
[41] = group: developmental, developmental / developmental malformation / bone / delayed ossification + developmental / developmental malformation / bone / supernumerary…
[42] = group: maternal, systemic / in life observation / clinical signs / ocular discharge + systemic / in life observation / clinical signs / red or crusty …
[43] = reproductive / reproductive performance / aborted / aborted + systemic / in life observation / mortality / mortality
[44] = group: developmental, systemic / in life observation / body weight / fetal weight
[45] = group: maternal, systemic / in life observation / body weight / body weight + systemic / in life observation / food consumption / food consumption + systemic…
[46] = systemic / in life observation / body weight / body weight gain + systemic / in life observation / body weight / offspring (pup) weight + …

## CNCc1cc(F)ccc1Oc1ccc(Cl)c(Cl)c1
Rabbit [1]; [18]
  LOAEL: > 100 mg/kg/day
  NOAEL: ≥ 100 mg/kg/day
Rabbit [1]; [19]
  LEL: 10 mg/kg/day
  NEL: < 10 mg/kg/day
Dog [2]
  LEL: 2 mg/kg/day
  LOAEL: > 30 mg/kg/day
  NEL: < 2 mg/kg/day
  NOAEL: ≥ 30 mg/kg/day
Dog [3]; [20]
  LOAEL: > 10 mg/kg/day
  NOAEL: ≥ 10 mg/kg/day
Dog [3]; [21]
  LEL: 3 mg/kg/day
  NEL: < 3 mg/kg/day
Rat [4]; [22]
  LEL: 30 mg/kg/day
  LOAEL: > 60 mg/kg/day
  NEL: 10 mg/kg/day
  NOAEL: ≥ 60 mg/kg/day
Rat [4]; [23]
  LOAEL: > 60 mg/kg/day
  NOAEL: ≥ 60 mg/kg/day
Rat [4]; [24]
  LEL: 10 mg/kg/day
  NEL: < 10 mg/kg/day
Rabbit [5]; systemic / in life observation / clinical signs / dialated pupils
  LEL: 10 mg/kg/day
Rabbit [5]; [25]
  LOAEL: > 30 mg/kg/day
  NOAEL: ≥ 30 mg/kg/day
Rat [6]; [26]
  LOAEL: > 300 mg/kg/day
  NOAEL: ≥ 300 mg/kg/day
Rat [6]; [27]
  LEL: 10 mg/kg/day
  NEL: < 10 mg/kg/day
Rat [7]; [28]
  LOAEL: > 150 mg/kg/day
  NOAEL: ≥ 150 mg/kg/day
Rat [7]; [29]
  LEL: 10 mg/kg/day
  NEL: < 10 mg/kg/day
Rat [8]; [30]
  LOAEL: > 100 mg/kg/day
  NEL: 10 mg/kg/day
  NOAEL: ≥ 100 mg/kg/day
Rat [8]; systemic / in life observation / clinical signs / salivation + systemic / in life observation / food consumption / food consumption
  LEL: 30 mg/kg/day
Dog [9]; [31]
  LOAEL: > 60 mg/kg/day
  NOAEL: ≥ 60 mg/kg/day
Dog [9]; [32]
  LEL: 3 mg/kg/day
  NEL: < 3 mg/kg/day
Rat [10]
  LEL: 25 mg/kg/day
  LOAEL: > 50 mg/kg/day
  NOAEL: ≥ 50 mg/kg/day

## CCCCC(CC)C(=O)O (stereo not given) [2-Ethylhexanoic acid]
Rat [11]; [33]
  LEL: 61 mg/kg/day
  NEL: < 61 mg/kg/day
Rat [11]; systemic / organ weight / liver / relative to body weight + systemic / pathology microscopic / liver / hypertrophy
  LOAEL: 303 mg/kg/day
Rat [11]; systemic / organ weight / liver / relative to body weight + systemic / pathology microscopic / liver / hypertrophy + systemic / clinical …
  NOAEL: 61 mg/kg/day
Rat [12]; [34]
  LEL: 100 mg/kg/day
  LOAEL: 100 mg/kg/day
  NEL: < 100 mg/kg/day
  NOAEL: < 100 mg/kg/day
Rat [12]; group: maternal, reproductive / reproductive performance / pregnancy / pregnancy
  LEL: 300 mg/kg/day
Rat [12]; [35]
  LOAEL: > 600 mg/kg/day
  NEL: 100 mg/kg/day
  NOAEL: ≥ 600 mg/kg/day
Rat [13]; [36]
  LOAEL: > 600 mg/kg/day
  NOAEL: ≥ 600 mg/kg/day
Rat [13]; [37]
  LEL: 100 mg/kg/day
  NEL: < 100 mg/kg/day
Rat [13]; [38]
  LOAEL: > 600 mg/kg/day
  NEL: 100 mg/kg/day
  NOAEL: ≥ 600 mg/kg/day
Rat [13]; group: parental, systemic / pathology microscopic / uterus / dilatation + systemic / pathology microscopic / vagina / hyperplasia + systemic / pathology …
  LEL: 300 mg/kg/day
Rat [13]; [39]
  LEL: 600 mg/kg/day
  LOAEL: > 600 mg/kg/day
  NOAEL: ≥ 600 mg/kg/day
mouse
  LEL: 885 mg/kg/day
  LOAEL: 885 mg/kg/day
  NEL: 180 mg/kg/day
  NOAEL: 180 mg/kg/day
Rat [14]; [40]
  LEL: 250 mg/kg/day
  LOAEL: 250 mg/kg/day
Rat [14]; [41]
  NEL: 100 mg/kg/day
  NOAEL: 100 mg/kg/day
Rat [14]; group: maternal, reproductive / reproductive performance / postimplantation loss / postimplantation loss + reproductive / reproductive performance / …
  NEL: 250 mg/kg/day
Rat [14]; [42]
  LEL: 500 mg/kg/day
  LOAEL: 500 mg/kg/day
  NOAEL: 250 mg/kg/day
Rabbit [15]; [43]
  LEL: 125 mg/kg/day
  LOAEL: 125 mg/kg/day
Rabbit [15]; reproductive / reproductive performance / aborted / aborted + systemic / in life observation / mortality / mortality + systemic / in life …
  NOAEL: 25 mg/kg/day

## COCCOC[C@H](CC1(C(=O)NC2CCC(C(=O)O)CC2)CCCC1)C(=O)Oc1ccc2c(c1)CCC2 (stereo not given in full) [Candoxatril]
Rabbit [16]; [44]
  LEL: 1000 mg/kg/day
  LOAEL: > 1000 mg/kg/day
  NOAEL: ≥ 1000 mg/kg/day
Rabbit [16]; [45]
  LEL: 1000 mg/kg/day
  LOAEL: > 1000 mg/kg/day
  NEL: 250 mg/kg/day
  NOAEL: ≥ 1000 mg/kg/day
Rat [17]; [46]
  LOAEL: > 1200 mg/kg/day
  NOAEL: ≥ 1200 mg/kg/day
Rat [17]; systemic / in life observation / clinical signs / hyperactivity
  NEL: < 120 mg/kg/day
